According to ChEMBL document CHEMBL1148954, “Two new cytotoxic tetracyclic tetraterpenoids from the soft coral Sarcophyton tortuosum” (J Nat Prod, 2004):
In brackets after ≈: the same amount, converted by molar mass.

Key:
P388 = test: Cytotoxicity against mouse P388 cells by MTT assay; type: functional, cell-based
[1] = Cytotoxicity against human CNE2 cells by MTT assay; type: functional, cell-based; details: CNE-2

Row | SMILES | IC50 (P388) | IC50 [1]
1 | COC(=O)[C@@]12CC(=O)[C@@H](C(C)C)CC(=O)[C@@H](C)CCC[C@@H](C)CC(=O)[C@@H]1CC(C)=C1[C@H]2/C=C(\C)CC[C@H]2O[C@@H](CC=C2C)[C@](C)(O)C[C@@H]1O [METHYL TORTUOATE A] | 3.5 µg/mL (≈ 5.12 µM) | 22.7 µg/mL (≈ 33.2 µM)
2 | COC(=O)[C@@]12CC(=O)[C@@H](C(C)C)CC(=O)[C@@H](C)CCC[C@@H](C)CC(=O)[C@@H]1CC(C)=C1[C@@H]3C[C@@](C)(O)[C@H](CC[C@@H](C)C(=O)CC/C(C)=C/[C@H]12)O3 [METHYL TORTUOATE B] | 5 µg/mL (≈ 7.32 µM) | 24.7 µg/mL (≈ 36.2 µM)
